Test results taken from publication PMC5676089 (Chemical Science, 2017).

How the values were obtained:
Conditions in all cases: two-fold dilutions in MH broth, 16–18 hours at 37 °C; triplicates
P. aeruginosa ZEM9.A = experiment: MIC, clinical isolate; type: cell-based, Pseudomonas aeruginosa
K. pneumoniae s. = experiment: MIC; type: cell-based, Klebsiella pneumoniae
E. coli (W3110) = experiment: MIC; type: cell-based, Escherichia coli
P. aeruginosa PEJ2.6 = experiment: MIC, clinical isolate; type: cell-based, Pseudomonas aeruginosa
A. baumannii 19606 = experiment: MIC; type: cell-based, Acinetobacter baumannii
S. aureus COL (MRSA) = experiment: MIC; type: cell-based, Staphylococcus aureus
P. aeruginosa ZEM1.A = experiment: MIC, clinical isolate; type: cell-based, Pseudomonas aeruginosa
S. aureus Newman (MSSA) = experiment: MIC; type: cell-based, Staphylococcus aureus
P. aeruginosa PEJ9.1 = experiment: MIC, clinical isolate; type: cell-based, Pseudomonas aeruginosa

Polymyxin B
MIC ZEM9.A (P. aeruginosa ZEM9.A): 4 μg mL^–1
MIC K. pneumoniae s. (K. pneumoniae s.): 1 μg mL^–1
MIC E. coli (W3110) (E. coli (W3110)): 0.125 μg mL^–1
MIC PEJ2.6 (P. aeruginosa PEJ2.6): 0.5 μg mL^–1
MIC A. baumannii 19606 (A. baumannii 19606): 0.125 μg mL^–1
MIC S. aureus COL (MRSA) (S. aureus COL (MRSA)): >64 μg mL^–1
MIC ZEM1.A (P. aeruginosa ZEM1.A): 0.125 μg mL^–1
MIC S. aureus Newman (MSSA) (S. aureus Newman (MSSA)): >64 μg mL^–1
MIC PEJ9.1 (P. aeruginosa PEJ9.1): 0.5 μg mL^–1
